These results are taken from patent US5807899A, “Triphenylethylenes, process for their production, pharmaceutical preparations that contain these triphenylethylenes as well as their use for the production of pharmaceutical agents” (Schering Aktiengesellschaft, priority 1995, dated 1998).

For one assay, the system named is HeLa cell line. As to the kind of experiment: Transactivation assay for antiestrogenic action, HeLa cell line. It is filed as cell-based. The conditions noted are these: Homo sapiens, antiestrogenic action in transactivation assay. On the procedure: The compounds of general formula I according to this application are distinguished by a new type of side chain on the phenoxy radical in comparison to the already known tamoxifen derivatives. […] As mentioned an estrogenic partial action can also be present in the-compounds according to the invention. The antiestrogenic and optionally estrogenic action of the compounds according to the invention was determined in a transactivation assay [Demirpence, E.; Duchesne, M.-J.; Badia, E.; Gagne, D.; and Pons, M.: MVLN Cells: A Bioluminescent MCF-7-Derived Cell Line to Study the Modulation of Estrogenic Activity; J. Steroid Molec. Biol.. Vol. 46, No. 3, 355-364 (1993) as well as Savouret, J. F.; Bailly, A.; Misrahi, M.; Rauch, C.; Redeuilh, G.; Chauchereau, A. and Milgrom, E.: Characterization of the Hormone Responsive Element Involved in the Regulation of the Progesterone Receptor Gene, The EMBO Journal Vol. 10, No. 7, 1875-1883 (1991)].
The IC50 values for the new compounds lie in the nanomolar range. In the HeLa cell line, the following IC50 values are produced for the compounds of Examples 5, 12, 13 and 16 (test implementation according to the bibliographic references indicated above): […]

Assay [1] has as its system estrogens (antiestrogenic / estrogenic activity). The conditions noted are these: reference compound; cited from earlier work.

The term IC50 denotes the concentration needed to halve the response being measured. Read a high IC50 as weaker potency. On to `CCC(=C(c1ccc(O)cc1)c1ccc(OCCCCC[S+]([O-])CCCC(F)(F)C(F)(F)F)cc1)c1ccccc1` (centres unmarked) [Example 5, 4-(1-{4-[5-(4,4,5,5,5-Pentafluoropentanesulfinyl)-pentyloxy]-phenyl}-2-phenyl-but-1-enyl)-phenol], for which the IC50 in the assay on HeLa cell line is 1 nM. In the assay with HeLa cell line, `CCC(=C(c1ccc(O)cc1)c1ccc(OCCCCCSCc2ccccn2)cc1)c1ccccc1` [Example 11, 4-((E,Z)-2-Phenyl-1-{4-[5-(pyridin-2-ylmethylsulfidyl)-pentyloxy]-phenyl}-but-1-enyl)-phenol] had an IC50 of 5 nM.

For `CCC(=C(c1ccc(O)cc1)c1ccc(OCCCCC[S+]([O-])Cc2ccccn2)cc1)c1ccccc1` (centres unmarked) [Example 12, 4-((E,Z)-2-Phenyl-1-{4-[5-(pyridin-2-ylmethanesulfinyl)-pentyloxy]-phenyl}-but-1-enyl)-phenol], in the assay on HeLa cell line, the IC50 stood at 2.8 nM.

In turn, `CCC(=C(c1ccc(I)cc1)c1ccc(OCCCCC[S+]([O-])CCCC(F)(F)C(F)(F)F)cc1)c1ccccc1` (centres unmarked) [Example 15, (5-{4-[(E,Z)-1-(4-Iodophenyl)-2-phenyl-but-1-enyl]-phenoxy}-pentyl)-(4,4,5,5,5-pentafluoropentyl)-sulfoxide] displayed an IC50 with HeLa cell line of 17 nM. Turning to `CC/C(=C(\c1ccccc1)c1ccc(OCCN(C)C)cc1)c1ccccc1` [tamoxifen], the “antiestrogenic / estrogenic profile of tamoxifen” value in assay [1] is “antiestrogens with estrogenic partial action”.
